Results: ChEMBL document CHEMBL1153920, “4,4-Difluorinated analogues of l-arginine and N(G)-hydroxy-l-arginine as mechanistic probes for nitric oxide synthase” (Bioorg Med Chem Lett, 2009)

Tests used:
[1] = biological target: T1, Nitric oxide synthase, inducible (Homo sapiens, UniProt P35228); assay: Binding affinity to iNOS with heme domain construct assessed as spectral binding constant by spectral assay
[2] = biological target: T1, Nitric oxide synthase, inducible; assay: Activity of iNOS assessed as increase in Kcat by indirect spectral assay relative to N'G-hydroxy-L-arginine

T1 sequence (P35228 whole entry, the tested form may be a part): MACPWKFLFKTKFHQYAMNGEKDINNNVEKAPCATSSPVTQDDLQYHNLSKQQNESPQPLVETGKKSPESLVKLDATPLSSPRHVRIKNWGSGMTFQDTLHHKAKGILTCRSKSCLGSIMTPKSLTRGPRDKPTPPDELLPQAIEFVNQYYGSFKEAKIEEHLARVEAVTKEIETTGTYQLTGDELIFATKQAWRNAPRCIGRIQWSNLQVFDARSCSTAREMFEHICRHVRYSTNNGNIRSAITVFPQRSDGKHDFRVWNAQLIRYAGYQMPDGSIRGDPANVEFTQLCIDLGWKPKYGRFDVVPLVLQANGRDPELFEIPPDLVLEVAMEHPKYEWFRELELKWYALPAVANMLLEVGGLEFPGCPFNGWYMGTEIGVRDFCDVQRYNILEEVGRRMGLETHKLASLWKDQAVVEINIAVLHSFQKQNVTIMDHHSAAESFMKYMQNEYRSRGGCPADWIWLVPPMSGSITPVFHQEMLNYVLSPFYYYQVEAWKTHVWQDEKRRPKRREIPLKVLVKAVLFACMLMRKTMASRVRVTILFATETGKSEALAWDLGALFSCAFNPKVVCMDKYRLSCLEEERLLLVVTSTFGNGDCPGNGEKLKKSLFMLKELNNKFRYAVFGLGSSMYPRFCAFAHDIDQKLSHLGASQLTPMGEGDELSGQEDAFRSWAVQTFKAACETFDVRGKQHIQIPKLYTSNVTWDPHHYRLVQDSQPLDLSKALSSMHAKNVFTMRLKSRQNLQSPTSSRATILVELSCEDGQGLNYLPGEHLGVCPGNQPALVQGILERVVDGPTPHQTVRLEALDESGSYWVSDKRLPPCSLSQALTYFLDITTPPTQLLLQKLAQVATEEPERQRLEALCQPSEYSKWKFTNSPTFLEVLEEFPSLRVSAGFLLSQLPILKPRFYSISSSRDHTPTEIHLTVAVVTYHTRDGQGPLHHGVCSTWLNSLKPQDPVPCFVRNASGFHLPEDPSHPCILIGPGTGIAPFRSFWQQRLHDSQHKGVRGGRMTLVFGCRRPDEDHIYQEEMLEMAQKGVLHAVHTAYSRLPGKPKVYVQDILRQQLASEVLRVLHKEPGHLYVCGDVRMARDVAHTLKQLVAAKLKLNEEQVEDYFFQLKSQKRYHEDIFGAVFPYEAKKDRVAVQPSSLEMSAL

| Kd [1] [µM] | Activity [2] [%] | Compound |
| --- | --- | --- |
| 3100 | 10 | N=C(N)NCC(F)(F)C[C@H](N)C(=O)O |
| 116 | 30 | N/C(=N\O)NCC(F)(F)C[C@H](N)C(=O)O |
| 5.1 |  | N=C(NO)NCCC[C@H](N)C(=O)O |
